Values of other authors as cited in patent US20120288569A1 (priority 2003, published 2012).

How the values were obtained:
[1] = tested on: calcification in aortas and kidneys of rats; conditions: rats treated with large amount of vitamin D3

## O=P(O)(O)OP(=O)(O)O [PPi, pyrophosphate]
PPi at 2 μm/L concentration
  uptake by the apatite crystals: rapidly and almost completely taken up
In vitro
  concentration that binds strongly to crystals of hydroxyapatite, inhibiting further precipitation of calcium phosphate: ≥ 0.1 µM
[1]
  effect on calcification in aortas and kidneys: inhibits calcification
